Results as given in ChEMBL document CHEMBL2073742, “The rat canalicular conjugate export pump (Mrp2) is down-regulated in intrahepatic and obstructive cholestasis” (Gastroenterology, 1997).

Molecular target: ATP-binding cassette sub-family C member 2 (Rattus norvegicus, UniProt Q63120)
Test: TP_TRANSPORTER: Western in vivo, liver of SD rat
Type: functional, organism-based, Sprague-Dawley

Chain of ATP-binding cassette sub-family C member 2 (Q63120 whole entry): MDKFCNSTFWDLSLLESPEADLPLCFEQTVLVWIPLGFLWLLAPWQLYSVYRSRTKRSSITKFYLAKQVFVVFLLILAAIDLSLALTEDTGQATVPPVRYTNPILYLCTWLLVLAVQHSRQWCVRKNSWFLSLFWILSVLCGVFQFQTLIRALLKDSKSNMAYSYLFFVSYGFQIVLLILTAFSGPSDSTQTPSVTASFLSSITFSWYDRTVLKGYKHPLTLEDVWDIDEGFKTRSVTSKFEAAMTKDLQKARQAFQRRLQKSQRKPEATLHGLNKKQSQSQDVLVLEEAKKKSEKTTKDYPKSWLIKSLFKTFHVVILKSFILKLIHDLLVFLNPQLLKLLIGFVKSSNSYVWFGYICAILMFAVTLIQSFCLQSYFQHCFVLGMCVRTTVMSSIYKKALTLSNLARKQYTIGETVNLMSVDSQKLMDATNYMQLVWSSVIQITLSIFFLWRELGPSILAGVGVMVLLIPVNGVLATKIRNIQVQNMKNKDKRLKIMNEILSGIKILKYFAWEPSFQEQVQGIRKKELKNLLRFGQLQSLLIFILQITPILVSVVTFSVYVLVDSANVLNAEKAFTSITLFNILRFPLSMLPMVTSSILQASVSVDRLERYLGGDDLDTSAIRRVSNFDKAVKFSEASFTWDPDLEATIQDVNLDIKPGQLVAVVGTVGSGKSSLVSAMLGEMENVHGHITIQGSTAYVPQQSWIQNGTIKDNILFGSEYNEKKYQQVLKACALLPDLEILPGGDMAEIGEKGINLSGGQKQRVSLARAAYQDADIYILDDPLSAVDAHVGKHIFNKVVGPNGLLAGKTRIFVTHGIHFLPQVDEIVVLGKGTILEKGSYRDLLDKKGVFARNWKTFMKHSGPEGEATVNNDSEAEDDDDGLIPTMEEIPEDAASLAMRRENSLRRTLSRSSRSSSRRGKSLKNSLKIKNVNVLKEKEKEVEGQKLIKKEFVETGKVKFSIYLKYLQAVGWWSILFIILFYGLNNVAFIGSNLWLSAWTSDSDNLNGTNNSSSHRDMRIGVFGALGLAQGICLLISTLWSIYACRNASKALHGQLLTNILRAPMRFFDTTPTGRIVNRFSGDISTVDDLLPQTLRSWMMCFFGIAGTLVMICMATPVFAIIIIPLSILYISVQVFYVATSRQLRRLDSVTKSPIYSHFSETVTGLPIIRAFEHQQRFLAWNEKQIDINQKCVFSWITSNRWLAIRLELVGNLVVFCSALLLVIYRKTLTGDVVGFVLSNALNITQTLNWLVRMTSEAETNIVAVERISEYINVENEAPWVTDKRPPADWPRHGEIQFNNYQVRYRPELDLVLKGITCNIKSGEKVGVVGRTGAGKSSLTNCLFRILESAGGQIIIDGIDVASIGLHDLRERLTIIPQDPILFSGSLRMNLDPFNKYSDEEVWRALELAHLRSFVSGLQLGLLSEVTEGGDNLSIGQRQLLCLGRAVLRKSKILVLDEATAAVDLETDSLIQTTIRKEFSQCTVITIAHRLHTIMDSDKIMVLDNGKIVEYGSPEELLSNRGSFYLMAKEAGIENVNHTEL

With `C#C[C@]1(O)CC[C@H]2[C@@H]3CCc4cc(O)ccc4[C@H]3CC[C@@]21C` [ETHINYL ESTRADIOL] the Activity was “inducer [Decrease]”.
